In US20090156577A1, “7-AMINO ALKYLIDENYL-HETEROCYCLIC QUINOLONES AND NAPHTHYRIDONES” (priority 2004, published 2009):
Converted amounts (≈) assume the structure as drawn. Like-named read-outs stand apart in the source and are kept apart here.

Tested on: pathogenic bacteria
Assay: MIC by microdilution broth method (NCCLS M7-A4), in vitro antibacterial activity
Assay type: cell-based
Outline: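 MIC read after 35 °C incubation for 16–20 h relative to drug-free growth wells. Cation-adjusted Mueller-Hinton broth with two-fold compound dilutions, organisms at roughly 5×10^4 CFU/well final. Method follows NCCLS document M7-A4.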

[1] = Staphylococcus aureus, Organism A: Staphylococcus aureus OC4172, read-out: MIC
[2] = Streptococcus pneumoniae, ATCC49619, Organism E: Streptococcus pneumoniae ATCC 49619, read-out: MIC
[3] = Streptococcus pneumoniae, Organism C: fluoroquinolone-resistant clinical isolate of Streptococcus pneumoniae (QRDR amino acid substitutions)
[4] = Streptococcus pneumoniae, Organism D: fluoroquinolone-resistant clinical isolate of Streptococcus pneumoniae (QRDR amino acid substitutions)
[5] = Streptococcus pneumoniae, Organism B: fluoroquinolone-resistant clinical isolate of Streptococcus pneumoniae (QRDR amino acid substitutions)
[6] = Organism A: Staphylococcus aureus OC4172

## COc1c(N2CCC(=C(Cl)CNC(C)C)CC2)c(F)cc2c(=O)c(C(=O)O)cn(C3CC3)c12 [Compound 196, 7-[4-(1-Chloro-2-isopropylamino-ethylidene)-piperidin-1-yl]-1-cyclopropyl-6-fluoro-8-methoxy-4-oxo-1,4-dihydro-quinoline-3-carboxylic acid]
[1]
  MIC: 0.12 µg/mL (≈ 0.251 µM)
[2]
  MIC: 0.5 µg/mL (≈ 1.05 µM)
[3]
  MIC: 4 µg/mL (≈ 8.37 µM)
[4]
  MIC: 2 µg/mL (≈ 4.18 µM)

## COc1c(N2CCC(=C(F)CN(C)C)CC2)c(F)cc2c(=O)c(C(=O)O)cn(C3CC3)c12 [Compound 199, 1-Cyclopropyl-7-[4-(2-dimethylamino-1-fluoro-ethylidene)-piperidin-1-yl]-6-fluoro-8-methoxy-4-oxo-1,4-dihydro-quinoline-3-carboxylic acid]
[1]
  MIC: 0.06 µg/mL (≈ 0.134 µM)
[2]
  MIC: 0.25 µg/mL (≈ 0.559 µM)
[5]
  MIC: 1 µg/mL (≈ 2.23 µM)
[3]
  MIC: 2 µg/mL (≈ 4.47 µM)
[4]
  MIC: 1 µg/mL (≈ 2.23 µM)

## COc1c(N2CCC(=C(CN)CCO)CC2)c(F)cc2c(=O)c(C(=O)O)cn(C3CC3)c12 [Compound 201, 7-[4-(1-Aminomethyl-3-hydroxy-propylidene)-piperidin-1-yl]-1-cyclopropyl-6-fluoro-8-methoxy-4-oxo-1,4-dihydro-quinoline-3-carboxylic acid]
[1]
  MIC: 0.12 µg/mL (≈ 0.269 µM)
[2]
  MIC: 0.5 µg/mL (≈ 1.12 µM)
[3]
  MIC: 2 µg/mL (≈ 4.49 µM)
[4]
  MIC: 8 µg/mL (≈ 18 µM)

## C=C(C)CC(CN)=C1CCN(c2c(F)cc3c(=O)c(C(=O)O)cn(C4CC4)c3c2OC)CC1 [Compound 202, 7-[4-(1-Aminomethyl-3-methyl-but-3-enylidene)-piperidin-1-yl]-1-cyclopropyl-6-fluoro-8-methoxy-4-oxo-1,4-dihydro-quinoline-3-carboxylic acid]
[1]
  MIC: 0.5 µg/mL (≈ 1.1 µM)
[2]
  MIC: 2 µg/mL (≈ 4.39 µM)
[5]
  MIC: 16 µg/mL (≈ 35.1 µM)
[3]
  MIC: 16 µg/mL (≈ 35.1 µM)
[4]
  MIC: 8 µg/mL (≈ 17.6 µM)

## C=CCC(CN)=C1CCN(c2c(F)cc3c(=O)c(C(=O)O)cn(C4CC4)c3c2OC)CC1 [Compound 203, 7-[4-(1-Aminomethyl-but-3-enylidene)-piperidin-1-yl]-1-cyclopropyl-6-fluoro-8-methoxy-4-oxo-1,4-dihydro-quinoline-3-carboxylic acid]
[1]
  MIC: 0.06 µg/mL (≈ 0.136 µM)
[2]
  MIC: 0.12 µg/mL (≈ 0.272 µM)
[5]
  MIC: 0.06 µg/mL (≈ 0.136 µM)
[3]
  MIC: 1 µg/mL (≈ 2.26 µM)
[4]
  MIC: 0.5 µg/mL (≈ 1.13 µM)

## COc1c(N2CCC(=C(Br)CN)CC2)c(F)cc2c(=O)c(C(=O)O)cn(C3CC3)c12 [Compound 204, 7-[4-(2-Amino-1-bromo-ethylidene)-piperidin-1-yl]-1-cyclopropyl-6-fluoro-8-methoxy-4-oxo-1,4-dihydro-quinoline-3-carboxylic acid]
[1]
  MIC: 0.25 µg/mL (≈ 0.52 µM)
[2]
  MIC: 0.12 µg/mL (≈ 0.25 µM)
[5]
  MIC: 0.5 µg/mL (≈ 1.04 µM)
[3]
  MIC: 0.5 µg/mL (≈ 1.04 µM)
[4]
  MIC: 0.5 µg/mL (≈ 1.04 µM)

## NCC(Cl)=C1CN(c2c(F)cc3c(=O)c(C(=O)O)cn(C4CC4)c3c2OC(F)F)C1 [Compound 205, 7-[3-(2-Amino-1-chloro-ethylidene)-azetidin-1-yl]-1-cyclopropyl-8-difluoromethoxy-6-fluoro-4-oxo-1,4-dihydro-quinoline-3-carboxylic acid]
[1]
  MIC: 0.25 µg/mL (≈ 0.563 µM)
[2]
  MIC: 0.5 µg/mL (≈ 1.13 µM)
[5]
  MIC: 2 µg/mL (≈ 4.51 µM)
[3]
  MIC: 8 µg/mL (≈ 18 µM)
[4]
  MIC: 4 µg/mL (≈ 9.01 µM)

## CN(CC(Cl)=C1CCN(c2c(F)cc3c(=O)c(C(=O)O)cn(C4CC4)c3c2OC(F)F)CC1)Cc1ccccc1 [Compound 206, 7-{4-[2-(Benzyl-methyl-amino)-1-chloro-ethylidene]-piperidin-1-yl}-1-cyclopropyl-8-difluoromethoxy-6-fluoro-4-oxo-1,4-dihydro-quinoline-3-carboxylic acid]
[1]
  MIC: 1 µg/mL (≈ 1.74 µM)
[2]
  MIC: 4 µg/mL (≈ 6.94 µM)
[3]
  MIC: 4 µg/mL (≈ 6.94 µM)
[4]
  MIC: 4 µg/mL (≈ 6.94 µM)

## CN(CC(F)=C1CCN(c2c(F)cc3c(=O)c(C(=O)O)cn(C4CC4)c3c2OC(F)F)CC1)Cc1ccccc1 [Compound 207, 7-{4-[2-(Benzyl-methyl-amino)-1-fluoro-ethylidene]-piperidin-1-yl}-1-cyclopropyl-8-difluoromethoxy-6-fluoro-4-oxo-1,4-dihydro-quinoline-3-carboxylic acid]
[1]
  MIC: 1 µg/mL (≈ 1.79 µM)
[2]
  MIC: 4 µg/mL (≈ 7.15 µM)
[5]
  MIC: 8 µg/mL (≈ 14.3 µM)
[3]
  MIC: 8 µg/mL (≈ 14.3 µM)
[4]
  MIC: 2 µg/mL (≈ 3.57 µM)

## NCC(F)=C1CCN(c2cc3c(cc2F)c(=O)c(C(=O)O)cn3C2CC2)CC1 [Compound 208, 7-[4-(2-Amino-1-fluoro-ethylidene)-piperidin-1-yl]-1-cyclopropyl-6-fluoro-4-oxo-1,4-dihydro-quinoline-3-carboxylic acid]
[6]
  MIC: 0.06 µg/mL (≈ 0.154 µM)
Organism C: fluoroquinolone-resistant clinical isolate of Streptococcus pneumoniae (QRDR amino acid substitutions)
  MIC: 2 µg/mL (≈ 5.14 µM)
Organism E: Streptococcus pneumoniae ATCC 49619
  MIC: 0.25 µg/mL (≈ 0.642 µM)
[5]
  MIC: 0.25 µg/mL (≈ 0.642 µM)
[4]
  MIC: 0.25 µg/mL (≈ 0.642 µM)

## COc1c(N2CC(=C(Cl)CN)C2)ccc2c(=O)c(C(=O)O)cn(C3CC3)c12 [Compound 209, 7-[3-(2-Amino-1-chloro-ethylidene)-azetidin-1-yl]-1-cyclopropyl-8-methoxy-4-oxo-1,4-dihydro-quinoline-3-carboxylic acid]
[1]
  MIC: 0.12 µg/mL (≈ 0.308 µM)
[2]
  MIC: 2 µg/mL (≈ 5.13 µM)
[3]
  MIC: 8 µg/mL (≈ 20.5 µM)
[4]
  MIC: 16 µg/mL (≈ 41 µM)

## CC1COc2c(N3CCC(=CCN)C(O)C3)c(F)cc3c(=O)c(C(=O)O)cn1c23 (centres unmarked) [Compound 210, 9-[4-(2-Amino-ethylidene)-3-hydroxy-piperidin-1-yl]-8-fluoro-3-methyl-6-oxo-2,3-dihydro-6H-1-oxa-3a-aza-phenalene-5-carboxylic acid]
[1]
  MIC: 8 µg/mL (≈ 19.8 µM)
[2]
  MIC: > 16 µg/mL
[5]
  MIC: 16 µg/mL (≈ 39.7 µM)
[3]
  MIC: 16 µg/mL (≈ 39.7 µM)

## CC(CO)=C1CCN(c2c(F)cc3c(=O)c(C(=O)O)cn4c3c2OCC4C)CC1 (centres unmarked) [Compound 211, 8-Fluoro-9-[4-(2-hydroxy-1-methyl-ethylidene)-piperidin-1-yl]-3-methyl-6-oxo-2,3-dihydro-6H-1-oxa-3a-aza-phenalene-5-carboxylic acid]
[1]
  MIC: 0.03 µg/mL (≈ 0.0745 µM)
[2]
  MIC: 0.5 µg/mL (≈ 1.24 µM)
[5]
  MIC: 4 µg/mL (≈ 9.94 µM)
[3]
  MIC: 4 µg/mL (≈ 9.94 µM)

## COc1c(N2CCC(=CCN)CC2)c(F)cc2c(=O)c(C(=O)O)cn(C3CC3)c12 [Compound 212, 7-[4-(2-Amino-ethylidene)-piperidin-1-yl]-1-cyclopropyl-6-fluoro-8-methoxy-4-oxo-1,4-dihydro-quinoline-3-carboxylic acid]
[1]
  MIC: 0.06 µg/mL (≈ 0.149 µM)
[2]
  MIC: 0.12 µg/mL (≈ 0.299 µM)
[5]
  MIC: 1 µg/mL (≈ 2.49 µM)
[3]
  MIC: 2 µg/mL (≈ 4.98 µM)
[4]
  MIC: 2 µg/mL (≈ 4.98 µM)

## CNCC(F)=C1CCN(c2c(F)cc3c(=O)c(C(=O)O)cn(C4CC4)c3c2OC)CC1 [Compound 213, 1-Cyclopropyl-6-fluoro-7-[4-(1-fluoro-2-methylamino-ethylidene)-piperidin-1-yl]-8-methoxy-4-oxo-1,4-dihydro-quinoline-3-carboxylic acid]
[1]
  MIC: 0.12 µg/mL (≈ 0.277 µM)
[2]
  MIC: 0.5 µg/mL (≈ 1.15 µM)
[3]
  MIC: 2 µg/mL (≈ 4.61 µM)
[4]
  MIC: 2 µg/mL (≈ 4.61 µM)

## CCNCC(F)=C1CCN(c2c(F)cc3c(=O)c(C(=O)O)cn(C4CC4)c3c2OC)CC1 [Compound 214, 1-Cyclopropyl-7-[4-(2-ethylamino-1-fluoro-ethylidene)-piperidin-1-yl]-6-fluoro-8-methoxy-4-oxo-1,4-dihydro-quinoline-3-carboxylic acid]
[1]
  MIC: 0.06 µg/mL (≈ 0.134 µM)
[2]
  MIC: 0.25 µg/mL (≈ 0.559 µM)
[3]
  MIC: 1 µg/mL (≈ 2.23 µM)
[4]
  MIC: 1 µg/mL (≈ 2.23 µM)

## CNCC(Cl)=C1CCN(c2nc3c(cc2F)c(=O)c(C(=O)O)cn3C2CC2)CC1 [Compound 215, 7-[4-(1-Chloro-2-methylamino-ethylidene)-piperidin-1-yl]-1-cyclopropyl-6-fluoro-4-oxo-1,4-dihydro-[1,8]naphthyridine-3-carboxylic acid]
[6]
  MIC: 0.25 µg/mL (≈ 0.594 µM)
Organism B: fluoroquinolone-resistant clinical isolate of Streptococcus pneumoniae (QRDR amino acid substitutions)
  MIC: 2 µg/mL (≈ 4.75 µM)
[2]
  MIC: 0.25 µg/mL (≈ 0.594 µM)
[3]
  MIC: 2 µg/mL (≈ 4.75 µM)
[4]
  MIC: 2 µg/mL (≈ 4.75 µM)
